How the values were obtained:
[1] = target: Galectin-3 (Homo sapiens, UniProt P17931); test: Fluorescence anisotropy assay, inhibition of galectin / fluorescein tagged saccharide probe interaction; details: compound as inhibitor of probe binding
Method: (§1) The affinity of Example 1-45 for galectins were determined by a fluorescence anisotropy assay where the compound was used as an inhibitor of the interaction between galectin and a fluorescein tagged saccharide probe as described Sörme, P., Kahl-Knutsson, B., Huflejt, M., Nilsson, U. J., and Leffler H. (2004) Fluorescence polarization as an analytical tool to evaluate galectin-ligand interactions. Anal. Biochem. 334: 36-47, (Sorme et al., 2004) and Monovalent interactions of Galectin-1 By Salomonsson, Emma; Larumbe, Amaia; Tejler, Johan; Tullberg, Erik; Rydberg, Hanna; Sundin, Anders; Khabut, Areej; Frejd, Torbjorn; Lobsanov, Yuri D.; Rini, James M.; et al, From Biochemistry (2010), 49(44), 9518-9532, (Salomonsson et al., 2010).

[2] = target: Galectin-1 (Homo sapiens, UniProt P09382); test: as above; details: compound as inhibitor of probe binding
Sequence of Galectin-1 (P09382 whole entry, species assumed): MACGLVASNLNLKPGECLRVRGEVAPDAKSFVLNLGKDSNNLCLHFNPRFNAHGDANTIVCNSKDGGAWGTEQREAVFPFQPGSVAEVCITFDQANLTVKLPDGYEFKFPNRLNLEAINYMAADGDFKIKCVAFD
Method: as §1

Sequence of Galectin-3 (P17931 whole entry, species assumed): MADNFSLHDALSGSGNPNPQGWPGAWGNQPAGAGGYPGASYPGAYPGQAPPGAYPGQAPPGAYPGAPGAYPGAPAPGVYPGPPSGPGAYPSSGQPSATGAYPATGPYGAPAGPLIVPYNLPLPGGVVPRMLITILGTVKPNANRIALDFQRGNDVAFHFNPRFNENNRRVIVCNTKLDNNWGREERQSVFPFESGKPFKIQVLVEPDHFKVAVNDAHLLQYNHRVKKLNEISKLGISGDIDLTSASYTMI

Structure (SMILES)	Kd [1] [µM]	Kd [2] [µM]
OCC1O[C@H](Sc2cccc(Cl)c2)C(O)C(n2cc(-c3cccc(F)c3)cn2)[C@H]1O (stereo partly drawn) [Example 1, 3-Chlorophenyl 3-deoxy-3-[4-(3-fluorophenyl)-1H-1,2-pyrazol-1-yl]-1-thio-α-D-galactopyranoside]	0.27	19.9
Cc1c(F)cc(-c2cnn(C3C(O)[C@@H](Sc4cncc(Cl)c4)OC(CO)[C@@H]3O)c2)cc1F (stereo partly drawn) [Example 4, 5-Chloropyridin-3-yl 3-deoxy-3-[4-(3,5-difluoro-4-methylphenyl)-1H-1,2-pyrazol-1-yl]-1-thio-α-D-galactopyranoside]	0.009	43
OCC1O[C@H](Sc2cncc(Br)c2)C(O)C(n2cc(-c3cc(F)c(F)c(F)c3)cn2)[C@H]1O (stereo partly drawn) [Example 5, 5-Bromopyridin-3-yl 3-deoxy-3-[4-(3,4,5-trifluorophenyl)-1H-1,2-pyrazol-1-yl]-1-thio-α-D-galactopyranoside]	0.025	14.8
C#Cc1cncc(S[C@H]2OC(CO)[C@H](O)C(n3cc(-c4cc(F)c(Cl)c(F)c4)cn3)C2O)c1 (stereo partly drawn) [Example 7, 5-Ethynylpyridin-3-yl 3-[4-(4-chloro-3,5-difluorophenyl)-1H-1,2-pyrazol-1-yl]-3-deoxy-1-thio-α-D-galactopyranoside]	0.014	30
N#Cc1ccc(Cl)cc1S[C@H]1OC(CO)[C@H](O)C(n2cc(-c3cc(F)c(Cl)c(F)c3)cn2)C1O (stereo partly drawn) [Example 8, 5-Chloro-2-cyanophenyl 3-[4-(4-chloro-3,5-difluorophenyl)-1H-1,2-pyrazol-1-yl]-3-deoxy-1-thio-α-D-galactopyranoside]	0.02	48
O=C(c1ccc(Cl)cc1S[C@H]1OC(CO)[C@H](O)C(n2cc(-c3cc(F)c(Cl)c(F)c3)cn2)C1O)N1CCC1 (stereo partly drawn) [Example 9, 2-(N-azetidinyl-carbonyl)-5-chlorophenyl 3-[4-(4-chloro-3,5-difluorophenyl)-1H-1,2-pyrazol-1-yl]-3-deoxy-1-thio-α-D-galactopyranoside]	0.012	19.2
O=C(c1ccc(Cl)cc1S[C@H]1OC(CO)[C@H](O)C(n2cc(-c3cc(F)c(F)c(F)c3)cn2)C1O)N1CCC1 (stereo partly drawn) [Example 10, 2-(N-azetidinyl-carbonyl)-5-chlorophenyl 3-deoxy-3-[4-(3,4,5-trifluorophenyl)-1H-1,2-pyrazol-1-yl]-1-thio-α-D-galactopyranoside]	0.015	6.8
N#Cc1ccc(Cl)cc1S[C@H]1OC(CO)[C@H](O)C(n2cc(-c3cc(F)c(F)c(F)c3)cn2)C1O (stereo partly drawn) [Example 11, 5-Chloro-2-cyanophenyl 3-deoxy-3-[4-(3,4,5-trifluorophenyl)-1H-1,2-pyrazol-1-yl]-1-thio-α-D-galactopyranoside]	0.024	9.8
N#Cc1ncc(Cl)cc1S[C@H]1OC(CO)[C@H](O)C(n2cc(-c3cc(F)c(Cl)c(F)c3)cn2)C1O (stereo partly drawn) [Example 13, 5-Chloro-2-cyanopyridin-3-yl 3-[4-(4-chloro-3,5-difluorophenyl)-1H-1,2-pyrazol-1-yl]-3-deoxy-1-thio-α-D-galactopyranoside]	0.014	34
Cc1cnc(C#N)c(S[C@H]2OC(CO)[C@H](O)C(n3cc(-c4cc(F)c(F)c(F)c4)cn3)C2O)c1 (stereo partly shown) [Example 14]	0.08	51
C#Cc1cnc(C#N)c(S[C@H]2OC(CO)[C@H](O)C(n3cc(-c4cc(F)c(F)c(F)c4)cn3)C2O)c1 (stereo partly drawn) [Example 16, 2-Cyano-5-ethynylpyridin-3-yl 3-deoxy-3-[4-(3,4,5-trifluorophenyl)-1H-1,2-pyrazol-1-yl]-1-thio-α-D-galactopyranoside]	0.021	12.7
OCC1O[C@H](Sc2cncc(Cl)c2)C(O)C(n2cc(-c3cccc(F)n3)cn2)[C@H]1O (stereo partly drawn) [Example 18, 5-Chloropyridin-3-yl 3-deoxy-3-[4-(6-fluoropyridin-2-yl)-1H-1,2-pyrazol-1-yl]-1-thio-α-D-galactopyranoside]	0.69	12.3
OCC1O[C@H](Sc2cncc(Cl)c2)C(O)C(n2cc(-c3ccc(F)cn3)cn2)[C@H]1O (stereo partly drawn) [Example 19, 5-Chloropyridin-3-yl 3-deoxy-3-[4-(5-fluoropyridin-2-yl)-1H-1,2-pyrazol-1-yl]-1-thio-α-D-galactopyranoside]	1.6	4.1
OCC1O[C@H](Sc2cncc(Cl)c2)C(O)C(n2cc(-c3cc(F)ccn3)cn2)[C@H]1O (stereo partly drawn) [Example 20, 5-Chloropyridin-3-yl 3-deoxy-3-[4-(4-fluoropyridin-2-yl)-1H-1,2-pyrazol-1-yl]-1-thio-α-D-galactopyranoside]	0.63	10.2
OCC1O[C@H](Sc2cncc(Cl)c2)C(O)C(n2cc(-c3cc[nH]n3)cn2)[C@H]1O (stereo partly drawn) [Example 21, 5-Chloropyridin-3-yl 3-deoxy-3-[4-(1H-1,2-pyrazol-3-yl)-1H-1,2-pyrazol-1-yl]-1-thio-α-D-galactopyranoside]	12.7	8.9
Cn1ccc(-c2cnn(C3C(O)[C@@H](Sc4cncc(Cl)c4)OC(CO)[C@@H]3O)c2)n1 (stereo partly drawn) [Example 22, 5-Chloropyridin-3-yl 3-deoxy-3-[4-(1-methyl-1,2-pyrazol-3-yl)-1H-1,2-pyrazol-1-yl]-1-thio-α-D-galactopyranoside]	9.6	14.7
OCC1O[C@H](Sc2cncc(Cl)c2)C(O)C(n2cc(-c3ncc[nH]3)cn2)[C@H]1O (stereo partly drawn) [Example 23, 5-Chloropyridin-3-yl 3-deoxy-3-[4-(1H-imidazol-2-yl)-1H-1,2-pyrazol-1-yl]-1-thio-α-D-galactopyranoside]	9	3.4
OCC1O[C@H](Sc2cncc(Cl)c2)C(O)C(n2cc(-c3ncco3)cn2)[C@H]1O (stereo partly drawn) [Example 24, 5-Chloropyridin-3-yl 3-deoxy-3-[4-(oxazol-2-yl)-1H-1,2-pyrazol-1-yl]-1-thio-α-D-galactopyranoside]	10.3	6.1
OCC1O[C@H](Sc2cncc(Cl)c2)C(O)C(n2cc(-c3cscn3)cn2)[C@H]1O (stereo partly drawn) [Example 25, 5-Chloropyridin-3-yl 3-deoxy-3-[4-(thiazol-4-yl)-1H-1,2-pyrazol-1-yl]-1-thio-α-D-galactopyranoside]	9.6	1.3
OCC1O[C@H](Sc2cncc(Cl)c2)C(O)C(n2cc(-c3nccs3)cn2)[C@H]1O (stereo partly drawn) [Example 26, 5-Chloropyridin-3-yl 3-deoxy-3-[4-(thiazol-2-yl)-1H-1,2-pyrazol-1-yl]-1-thio-α-D-galactopyranoside]	9.9	2.3
OCC1O[C@H](Sc2cncc(Cl)c2)C(O)C(n2cc(-c3nc(Cl)cs3)cn2)[C@H]1O (stereo partly drawn) [Example 27, 5-Chloropyridin-3-yl 3-[4-(4-chlorothiazol-2-yl)-1H-1,2-pyrazol-1-yl]-3-deoxy-1-thio-α-D-galactopyranoside]	1.5	0.59
OCC1O[C@H](Sc2cncc(Br)c2)C(O)C(n2cc(-c3nc(Cl)cs3)cn2)[C@H]1O (stereo partly drawn) [Example 28, 5-Bromopyridin-3-yl 3-[4-(4-chlorothiazol-2-yl)-1H-1,2-pyrazol-1-yl]-3-deoxy-1-thio-α-D-galactopyranoside]	1.2	0.52
N#Cc1ccc(Cl)cc1S[C@H]1OC(CO)[C@H](O)C(n2cc(-c3nc(Cl)cs3)cn2)C1O (stereo partly drawn) [Example 29, 5-Chloro-2-cyanophenyl 3-[4-(4-chlorothiazol-2-yl)-1H-1,2-pyrazol-1-yl]-3-deoxy-1-thio-α-D-galactopyranoside]	1.5	0.49

From patent US12410207B2, “Galactoside inhibitor of galectins” (GALECTO BIOTECH AB, priority 2019, dated 2025)
